In brackets after ≈: the same amount, converted by molar mass. Several values for one entry are separate records, joined by “and”; a condition that tells them apart may be missing. Equal entries are not always repeated.
Tests used:
[1] = system: T1, CTL2-GFP (C. trachomatis L2/434/Bu, GFP-expressing); test: microbe, parasite or virus in culture; parameters: species or system HeLa; C. trachomatis growth in HeLa, dose-response, mean of bulk GFP fluorescence and imaged total inclusion area; conditions: Chlamydia trachomatis, 28.5 h; mean of GFP and inclusion area
T1 construct: L2/434/Bu, GFP-expressing
Excerpt: (§1) We screened a library of 36,785 small molecules displaying drug-like properties and covering a wide chemical space (Fig 1A and S2A Data). In this process, we also complemented the assay described above with an imaging-based readout (Fig 1B). After measurements of bulk GFP and resorufin fluorescence, cells were fixed, stained with the DNA dye Hoechst, and imaged at a high-content imaging platform to detect chlamydial inclusions (GFP) and host cell nuclei (Hoechst). The total area and number of inclusions in individual wells and the number of nuclei then served as additional proxies for chlamydial growth and host cell viability. […] MICs were calculated as described above.

[2] = system: T1, CTL2-GFP (C. trachomatis L2/434/Bu, GFP-expressing); test: microbe, parasite or virus in culture; parameters: C. trachomatis growth in HeLa, dose-response, mean of bulk GFP fluorescence and imaged total inclusion area; conditions: Chlamydia trachomatis, HeLa, 28.5 h; mean of GFP and inclusion area
Excerpt: as §1

in vitro [3] = test: in vitro; parameters: Viability of infected HeLa host cells, resazurin conversion, bulk resorufin fluorescence relative to DMSO; conditions: human, hela cells; bulk resorufin, mean of 3
in vitro [4] = conditions: human, hela cells, % viability
HeLa = conditions: bulk resorufin, single well, 28.5 h, 10 µM, Bulk resorufin fluorescence

## CCCCc1ccc(Nc2csc(N)n2)cc1 [c11e]
[1]
  MIC: 3.11 µM (≈ 0.768 µg/mL)
[2]
  IC50: 0.956 µM
In vitro [3]
  viability at 28.5 h, 0.000416667 µM: 97.7%
  viability at 28.5 h, 0.00125 µM: 95.9%
  viability at 28.5 h, 0.00375 µM: 96.4%
  viability at 28.5 h, 0.0123333 µM: 104%
  viability at 28.5 h, 0.037 µM: 92.8%
  viability at 28.5 h, 0.111 µM: 97.8%
  viability at 28.5 h, 0.333 µM: 99.6%
  viability at 28.5 h, 1 µM: 102%
  viability at 28.5 h, 3 µM: 92.4%
  viability at 28.5 h, 10 µM: 92.8%
  viability at 28.5 h, 30 µM: 69.9%

## O=C(NCCc1c[nH]c2ccc(Cl)cc12)c1c(F)ccc(Cl)c1F [c42e]
[1]
  MIC: 5.43 µM (≈ 2 µg/mL)
[2]
  IC50: 5.3 µM
In vitro [3]
  viability at 28.5 h, 0.000416667 µM: 100%
  viability at 28.5 h, 0.00125 µM: 101%
  viability at 28.5 h, 0.00375 µM: 98.1%
  viability at 28.5 h, 0.0123333 µM: 104%
  viability at 28.5 h, 0.037 µM: 99.6%
  viability at 28.5 h, 0.111 µM: 101%
  viability at 28.5 h, 0.333 µM: 106%
  viability at 28.5 h, 1 µM: 109%
  viability at 28.5 h, 3 µM: 107%
  viability at 28.5 h, 10 µM: 103%
  viability at 28.5 h, 30 µM: 107%

## CCCN(CCC)CCc1cccc2c1CCN2C(=O)c1cc2ccccc2s1 [c15e]
[1]
  MIC: 3.22 µM (≈ 1.31 µg/mL)
[2]
  IC50: 1.15 µM
In vitro [3]
  viability at 28.5 h, 0.000416667 µM: 87.3%
  viability at 28.5 h, 0.00125 µM: 89.2%
  viability at 28.5 h, 0.00375 µM: 89.8%
  viability at 28.5 h, 0.0123333 µM: 88.8%
  viability at 28.5 h, 0.037 µM: 85.5%
  viability at 28.5 h, 0.111 µM: 94.8%
  viability at 28.5 h, 0.333 µM: 94.4%
  viability at 28.5 h, 1 µM: 90.6%
  viability at 28.5 h, 3 µM: 91.2%
  viability at 28.5 h, 10 µM: 99.9%
  viability at 28.5 h, 30 µM: 91.3%

## CCC(c1ccc(F)cc1)N(C)C(=O)Cn1cc(C(=O)NC2CCCCC2)ccc1=O (stereo not drawn) [c44e]
[2]
  IC50: 5.83 µM
In vitro [3]
  viability at 28.5 h, 0.000416667 µM: 93.4%
  viability at 28.5 h, 0.00125 µM: 91.8%
  viability at 28.5 h, 0.00375 µM: 93.8%
  viability at 28.5 h, 0.0123333 µM: 89.2%
  viability at 28.5 h, 0.037 µM: 90.8%
  viability at 28.5 h, 0.111 µM: 86.7%
  viability at 28.5 h, 0.333 µM: 87.7%
  viability at 28.5 h, 1 µM: 85.4%
  viability at 28.5 h, 3 µM: 87.9%
  viability at 28.5 h, 10 µM: 83.2%
  viability at 28.5 h, 30 µM: 87.2%

## C=CCNC(=O)[C@H]1C=CCN1S(=O)(=O)c1ccc(F)cc1 [CBK282320]
In vitro [4]
  viability at 28.5 h, 10 µM: 83.5%
HeLa
  % viability: 89.7%

## COc1cc2[nH]c(=S)n(C3CCCC3)c(=O)c2cc1OC [CBK288518]
In vitro [4]
  viability at 28.5 h, 10 µM: 84.9%
HeLa
  % viability: 93.5%

## C[C@@H](Cn1nnc2ccccc21)NC(=O)C1CC1 [CBK284312]
In vitro [4]
  viability at 28.5 h, 10 µM: 88.5%
HeLa
  % viability: 81.5%

## O=C(CSc1nc2ccccc2[nH]1)Nc1ccccc1 [CBK073089]
In vitro [4]
  viability at 28.5 h, 10 µM: 110%
HeLa
  % viability: 91.6%

## O=S(=O)(/C=C/c1ccncc1)NCc1ccc2c(c1)OCO2 [CBK018566]
In vitro [4]
  viability at 28.5 h, 10 µM: 91.3%
HeLa
  % viability: 92.8%

## C[C@@H]1CN2CCCC2CN1Cc1ccc(F)cc1F (stereo partly drawn) [CBK285455]
In vitro [4]
  viability at 28.5 h, 10 µM: 106%
HeLa
  % viability: 97.8%

## CCN(Cc1ccccc1)C(=O)NCc1cccc(C(F)(F)F)c1 [CBK155216]
In vitro [4]
  viability at 28.5 h, 10 µM: 110%
HeLa
  % viability: 96.1%

## CC(C)[C@H](Cn1nc(C2CC2)ccc1=O)NC(=O)Cc1cccs1 [CBK282368]
In vitro [4]
  viability at 28.5 h, 10 µM: 79.7%
HeLa
  % viability: 88.6%

## CCCCn1cc(CN2CC3CCCN3C[C@H]2C)c(C)n1 (stereo partly drawn) [CBK285433]
In vitro [4]
  viability at 28.5 h, 10 µM: 92.9%
HeLa
  % viability: 98.7%

## c1cnc2c(c1)cc([C@@H]1CCCO1)n2CCN1CCCCC1 [CBK282273]
In vitro [4]
  viability at 28.5 h, 10 µM: 101%
HeLa
  % viability: 109%

## Cc1c2c(=O)n(-c3ccccc3)[nH]c2cc(=O)n1CCc1ccccc1 [CBK269995]
In vitro [4]
  viability at 28.5 h, 10 µM: 101%
HeLa
  % viability: 92.7% and 109%

## CCOC(=O)C1=C(C)NC(=O)NC1c1ccc(Cl)cc1Cl (stereo not drawn) [CBK072057]
In vitro [4]
  viability at 28.5 h, 10 µM: 93.2%
HeLa
  % viability: 91%

## O=C(O)CCCNc1ccc(S(=O)(=O)N2CCCCC2)cc1 [CBK261001]
In vitro [4]
  viability at 28.5 h, 10 µM: 96.7%
HeLa
  % viability: 90.5%

## O=C(O)CCc1nn2c(-c3ccccc3)c(-c3ccccc3)nc2[nH]c1=O [CBK013564]
In vitro [4]
  viability at 28.5 h, 10 µM: 86.5%
HeLa
  % viability: 94.1%

## CCn1cc(CN2C[C@@H]3CCCN3C[C@@H]2CCSC)cn1 [CBK283181]
In vitro [4]
  viability at 28.5 h, 10 µM: 86.9%
HeLa
  % viability: 106%
